Results on 5 compounds are retold here after patent publication US20250177400A1, “METHODS OF THERAPEUTICS DEVELOPMENT OF GLIOBLASTOMA MULTIFORME BY QUINAZOLINE DERIVATIVES AND THEREOF” (priority 2023, published 2025).

“Also recorded” adds a separate entry of the source. Read-outs that look alike come from different tables or passages of the source.

One data set has as its target T1, PKCε (Homo sapiens, UniProt Q02156).
T1 construct: host or cells: SH-SY5Y human neuroblastoma cells
T1 sequence (Q02156 1-737): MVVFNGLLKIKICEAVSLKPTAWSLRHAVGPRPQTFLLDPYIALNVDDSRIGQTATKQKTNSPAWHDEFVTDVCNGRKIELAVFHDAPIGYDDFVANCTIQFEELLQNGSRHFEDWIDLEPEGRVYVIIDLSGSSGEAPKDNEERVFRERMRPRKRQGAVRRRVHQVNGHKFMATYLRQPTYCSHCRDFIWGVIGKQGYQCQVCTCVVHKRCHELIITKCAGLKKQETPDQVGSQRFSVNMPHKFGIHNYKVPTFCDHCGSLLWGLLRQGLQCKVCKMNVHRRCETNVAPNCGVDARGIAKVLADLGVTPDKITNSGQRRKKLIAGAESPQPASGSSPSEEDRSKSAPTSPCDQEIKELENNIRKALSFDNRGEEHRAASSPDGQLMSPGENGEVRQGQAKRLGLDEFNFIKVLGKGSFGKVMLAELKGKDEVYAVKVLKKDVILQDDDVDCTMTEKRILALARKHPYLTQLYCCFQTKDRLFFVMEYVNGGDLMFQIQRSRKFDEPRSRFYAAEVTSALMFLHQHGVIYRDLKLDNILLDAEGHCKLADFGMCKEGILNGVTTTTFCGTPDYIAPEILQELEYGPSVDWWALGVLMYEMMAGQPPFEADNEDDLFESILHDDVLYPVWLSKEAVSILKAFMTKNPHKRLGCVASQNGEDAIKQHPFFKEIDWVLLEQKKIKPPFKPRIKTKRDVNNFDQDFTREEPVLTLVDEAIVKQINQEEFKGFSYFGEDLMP
Kind of data set: PKCε activity (membrane/cytosol ratio) in neuroblastoma cells. The data set is classed as cell-based. The conditions noted are these: SHSY5Y cells. On the procedure: FIG. 7 depicts how novel quinazoline derivative decreases oncogenic PKCε activity in neuroblastoma cells. C=concentration of PKCε in cytosol fraction, and M=concentration of PKCε in membrane fraction of cells. PKCε activity was measured as the ratio of the concentration in the membrane and cytosol fraction.
Novel quinazoline derivative decreases oncogenic PKCepsilon (PKCε) activity in neuroblastoma cells (FIG. 7). We tested whether novel quinazoline derivatives can decrease oncogenic PKCε activity. […] Oncogenic PKCε is a survival kinase for GBM cells (Okhrimentko et al., 2005).
GBM cell line T98-G (ATCC-CRL-1690) was obtained and authenticated by the American Type Culture Collection (Cat #30-2003; ATCC, Manassas, VA). Cells were cultured and maintained in low glucose Dulbecco's Modified Eagle Medium (DMEM) (Thermo Fisher Scientific) supplemented with 10% fetal bovine serum (FBS, Thermo Fisher Scientific) at 37° C. in a 5% CO2 humidified atmosphere and passed in less than 6 months. Human neuroblastoma cells. […] The condition of the cultured cells was monitored with an inverted cell culture microscope (Westover Digital AMID Model 2000, Westover Scientific, Bothell, WA), controlled by a computer, and images were captured with image acquisition software (Micron 2.0.0, Westover Scientific). […]

The next data set deals with integrin β1 (CD29). Kind of data set: Western blot of integrin β1 levels in GBM cells. The data set is classed as cell-based, human. The conditions noted are these: normalized with β-tubulin, similar concentrations. An excerpt:
FIG. 6 depicts a novel quinazoline derivative (Compound 1:-Pyridin-2-yl -5,6-dihydro-benzo[4,5]imidazo[1,2-c]quinazoline) that decreases glioblastoma cell invasion by decreasing integrin β1 (CD29) levels. Intergrin β1 band decreased in Western blot analyses both in normal culture (A), and serum-free condition (B) by the treatment of compound 1. Propentofylline treatment produces reverse effects (A). Relative expression levels of integrin β1 is normalized with β-tubulin as a loading control in Western blot analyses. […] Standard Error of Mean (SEM) is calculated from three independent measurements.
Integrins have an important role to play in cell invasion in tumorigenic environments. […] We also compared the effectiveness of reducing β1 integrin level with propentofylline in the same concentration. […] Deletion of β1 integrin reduced tumorigenesis in in-vivo xenograft tumor growth animal model (Hou et al., 2016).
Reagents and antibodies: Propentofylline (molecular weight 306.366; [1-(5O-oxohexyl)-3-methyl-7-propylxanthine) was purchased from Sigma-Aldrich (St. Louis). Propentofylline and synthetic quinazoline derivatives were dissolved in DMSO (30-60 mM, depending on solubility). Aliquots were stored at −20 C. Stock solutions were dissolved in a culture medium at different concentrations just before each experiment. Rabbit monoclonal anti-Integrin beta 1 [CD29] antibody (Cat #04-1109) was purchased from Millipore (Temecula, CA). Anti-tubulin III antibody (Cat #79-720) was purchased from ProSci (Poway, CA). Antibody for PKCε (C-15) (Santa Cruz Biotechnology, Santa Cruz, CA; Cat No: sc-214) was used to detect PKCε and has been recommended for detection of PKCε of human origin by western blotting and immunofluorescence analysis by the manufacturer. Quinazoline derivatives were synthesized in the laboratory.

Data set [1] relates to Glioblastoma multiforme (GBM) cells (T98-G). Kind of data set: Cell viability by trypan blue exclusion assay. The data set is classed as cell-based, human. The settings on record: 50 and 100 μM, 3 days. On the procedure:
FIG. 3 depicts concentration dependence cell viability of human glioblastoma multiforme (GBM) cells by novel quinazoline derivative (Compound 1: 6-Pyridin-2-yl-5,6-dihydro-benzo[4,5]imidazo[1,2-c]quinazoline).
(§1) Glioblastoma multiforme (GBM) cells (T98-G) were cultured in 6 wells for ˜90% confluent. Cells were treated with different concentrations of Compound 1 (0.1, 1, 10, 50, 100μ) or vehicle (control). […] Cell viability was tested by trypan blue exclusion assay.
(§2) GBM cell line T98-G (ATCC-CRL-1690) was obtained and authenticated by the American Type Culture Collection (Cat #30-2003; ATCC, Manassas, VA). Cells were cultured and maintained in low glucose Dulbecco's Modified Eagle Medium (DMEM) (Thermo Fisher Scientific) supplemented with 10% fetal bovine serum (FBS, Thermo Fisher Scientific) at 37° C. in a 5% CO2 humidified atmosphere and passed in less than 6 months. Human neuroblastoma cells. Human SH-SY5Y neuroblastoma cells (Sigma-Aldrich) were cultured in 45% F12K, 45% Modified Eagle Medium (MEM), supplemented with 10% FBS in tissue culture incubator (37° C., 5% CO2, 90% humidity). Primary skin fibroblasts. […] The condition of the cultured cells was monitored with an inverted cell culture microscope (Westover Digital AMID Model 2000, Westover Scientific, Bothell, WA), controlled by a computer, and images were captured with image acquisition software (Micron 2.0.0, Westover Scientific).

Data set [2] relates to GBM cells. Kind of data set: Model tumor spheroid assay: GBM cell invasion in three-dimensional Matrigel matrix. The format is cell-based, human. The settings on record: 3D Matrigel matrix; for invasive cells in multicellular spheroids: 50 μM. An excerpt: FIG. 5 depicts the Human glioblastoma multiforme (GBM) cell invasion in a three-dimensional Matrigel basement membrane. Model Tumor Spheroid assay: GBM cells form a spheroid tumor-like biological entity in three-dimensional space. Proliferation and invasion of GBM in 3-dimensional Matrigel matrix in 5 days (A) and 12 days (B). Arrows indicate invasive cells in model tumor spheroids. The proliferation and invasion of GBM in a three-dimensional Matrigel matrix have been studied for days. […] Arrows indicate invasive cells.
GBM cells were incubated in a previously prepared 3-dimensional Matrigel matrix. Multicellular spheroids were formed after three days of incubation. The mechanical properties of cell invasion of patient-derived primary glioblastoma cells have been studied recently in 3-D matrigel matric (Grundy et al., 2016). Cellular invasiveness was monitored in multicellular spheroids of GBM embedded in 3D matrigel matric (FIG. 5).

Data set [3] relates to human normal primary skin fibroblasts. Kind of data set: Toxicity to cultured normal primary skin fibroblasts. The format is cell-based. On the procedure: FIG. 8 depicts the non-toxicity of Compound 1.
Insignificant toxicity was found for the quinazoline derivative (Compound 1): One quinazoline derivative (Compound 1) was non-toxic to cultured normal primary skin fibroblasts isolated from healthy individuals (FIG. 8). After three days of continuous treatment by 100 μM Compound 1, there was no cell death.
as §2

The test system of data set [4] is Glioblastoma multiforme (GBM) cells (T98-G). Kind of data set: Induction of apoptosis in cultured glioblastoma multiforme cells (microscopy). The format is cell-based, human. The settings on record: for induction of apoptosis in GBM cells: T98-G cells, 50 and 100 μM, three days, compared to vehicle control. The method, then: FIG. 2 depicts a novel quinazoline derivative (Compound 1:6-Pyridin-2-yl -5,6-dihydro-benzo[4,5]imidazo[1,2-c]quinazoline) that induces apoptosis in Glioblastoma (GBM) cells. Cells were treated with different concentrations of Compound 1 (0.1, 1, 10, 50, 100μ) or vehicle (control).
as §1
GBM cell line T98-G (ATCC-CRL-1690) was obtained and authenticated by the American Type Culture Collection (Cat #30-2003; ATCC, Manassas, VA). Cells were cultured and maintained in low glucose Dulbecco's Modified Eagle Medium (DMEM) (Thermo Fisher Scientific) supplemented with 10% fetal bovine serum (FBS, Thermo Fisher Scientific) at 37° C. in a 5% CO2 humidified atmosphere and passed in less than 6 months. Human neuroblastoma cells. Human SH-SY5Y neuroblastoma cells (Sigma-Aldrich) were cultured in 45% F12K, 45% Modified Eagle Medium (MEM), supplemented with 10% FBS in tissue culture incubator (37° C., 5% CO2, 90% humidity). Primary skin fibroblasts. Primary skin fibroblasts were obtained from the Coriell Institute for Medical Research (Camden, NJ; Cat #AG09555; the Aging Cell Culture Repository of the National Institute on Aging) and maintained in DMEM with low glucose (Invitrogen, Grand Island, NY) supplemented with 10% FBS in 6-well culture plates (37° C., 5% CO2, 90% humidity) until reaching 90-100% confluence. In addition, cells were treated with either vehicle, 50, and 100 μM quinazoline derivatives and propentofylline. The condition of the cultured cells was monitored with an inverted cell culture microscope (Westover Digital AMID Model 2000, Westover Scientific, Bothell, WA), controlled by a computer, and images were captured with image acquisition software (Micron 2.0.0, Westover Scientific).

The test system of data set [5] is GBM cells. The conditions noted are these: 2012, cited from earlier work; for GBM cell invasion and survival: Dhruv et al., 2016, Jacob et al.
In data set [6] the test system is Glioblastoma multiforme (GBM). The settings on record: cited from earlier work.

Regarding `c1ccc(C2Nc3ccccc3-c3nc4ccccc4n32)nc1` (centres unmarked) [Compound 1, 6-Pyridin-2-yl-5,6-dihydro-benzo[4,5]imidazo[1,2-c]quinazoline], on PKCε, the “PKCε activity (ratio of concentration in membrane and cytosol fraction)” value was “significantly decreased the PKCε activity”. Further, the “integrin β1 expression level” value in the data set with integrin β1 (CD29) is listed as “significantly decreases integrin β1 expression level; also recorded: decreasing β1 integrin (CD29) levels; also recorded: significantly reduced expression levels of β1-Integrin”. Moreover, the “cell viability (trypan blue exclusion)” value in data set [1] is “Cell viability was reduced”. Further, in the data set on GBM cells [2], the “invasive cells in multicellular spheroids” value is on record as “no invasive cells”. In the data set with GBM cells [2] (5th day), the “potency for reducing tumor size and cell invasion compared with Propentofylline” value was “more potent than Propentofylline in terms of reducing tumor size and cell invasion; also recorded: more potent inhibitor of GBM cell invasion”. In addition, the “cell death of primary skin fibroblasts” value in data set [3] (100 μM, three days of continuous treatment) is reported as “no noticeable cell death”. Besides, the “toxicity to primary human skin fibroblasts” value in data set [3] (cultured normal primary skin fibroblasts from healthy individuals) is reported as “non-toxic”. The “potency for inducing apoptosis / inhibiting GBM survival compared with Propentofylline” value in data set [4] (GBM cells, FIG. 4) is “more potent for inhibiting GBM survival than Propentofylline; also recorded: more potent than Propentofylline to induce apoptosis”. In addition, the “induction of apoptosis in GBM cells” value in data set [4] was “induced significant apoptosis; also recorded: induce apoptosis; also recorded: caused significant apoptosis”.

As for `c1c[nH]c(-c2nc3ccccc3c3nc4ccccc4n23)c1` [Compound 7, 6-(1H-Pyrrol-2-yl)-benzo[4,5]imidazo[1,2-c]quinazoline], the “induction of apoptosis in GBM cells” value in data set [4] is listed as “caused significant apoptosis”.

`CCCn1cnc2c1c(=O)n(CCCCC(C)=O)c(=O)n2C` [Propentofylline, 1-(5O-oxohexyl)-3-methyl-7-propylxanthine]: the “integrin β1 expression level” value is recorded as “not able to reduce β1 integrin level” with integrin β1 (CD29) and “significantly increases integrin β1 expression levels; also recorded: increased expression levels of β1-Integrin” in the data set with integrin β1 (CD29) (listed as propentofylline). In addition, the “invasive cells in multicellular spheroids” value in the data set on GBM cells [2] was “Invasive cells were sprouting outside of the spheroid”. Besides, the “GBM cell invasion and survival” value was “decreasing GBM cell invasion and survival” in the data set on GBM cells [5]; “decreased GBM cell invasion; also recorded: inhibits GBM survival” in the data set on GBM cells [5] (listed as propentofylline). Further, the “induction of apoptosis in GBM cells” value with GBM cells [5] (Jacobs et al.) is given as “ineffective inducing apoptosis”; in data set [4] it was “did not induce apoptosis”.

Regarding `Cn1nnc2c(C(N)=O)ncn2c1=O` [TMZ, temozolomide], the common side effects result in data set [6] (patients) is “bone marrow suppression, genotoxic, and teratogenic”.

As to “Bevacizumab: FDA-approved immunotherapeutic agent; therapeutic antibody (Genentech)”, the “progression-free survival at 6 months” value in data set [6] (GBM patients, % of cases) is on record as 36%. Besides, the overall survival in data set [6] (GBM patients) is 9.3 months. Moreover, in data set [6] (human, in vivo), the gastrointestinal perforation is 1.5-5.4%, the hypertension is 5.5-11.4%, the proteinuria is recorded as 2.7-11.4% and the thromboembolic events is on record as 3.2-11.9%. In data set [6] (human, in vivo), the wound healing complications was 0.8-3.3%. For the same compound, the “patients who developed therapeutic resistance” value in data set [6] (phase II clinical trial (Vredenburgh et al., 2007)) is on record as 40%.
